Experimental data as given in US20180338922A1, “FIXED DOSE FORMULATIONS” (Esperion Therapeutics, Inc., priority 2017, published 2018).
“Also recorded” adds a separate entry of the source. Read-outs that look alike come from different tables or passages of the source.

Columns and labels:
[1] = Forced degradation of bempedoic acid; assay type: physicochemical
Method: Forced degradation of bempedoic acid was carried out to study the impurity profile, degradation pathway, and to facilitate the development of a stability-indicating method. In addition, knowledge obtained from the forced degradation studies was used during formulation and process design and development to prevent impurities from being generated. The specified stress conditions were intended to achieve 5-20% degradation. The stressed samples were compared to the unstressed sample (control).

[2] = Flowability of the APIs (compressibility index, Hausner's ratio); assay type: physicochemical; settings: drug substance
[3] = Drug-drug compatibility study (HPLC, binary mixture 1:18 ezetimibe:bempedoic acid, solid state); assay type: physicochemical; settings: for Assay (Bempedoic Acid): in % (unit assumed)
Method: The fixed dose combination product under development is a novel combination of two drug substances and therefore determination of compatibility of the actives with each other was considered to be critical. The compatibility of the actives was assessed through HPLC analysis of binary mixtures of the drug substances at a ratio 1:18 (ezetimibe:bempedoic acid) in the solid state. Samples were stored at 60° C. and 40° C./75% RH in both open and closed containers for 2 weeks and 4 weeks respectively. Degradation products were evaluated for open (stressed) samples of accelerated condition (40° C./75% RH) and 60° C. Assay for the samples was also carried out.

[4] = Multimedia dissolution of Bempedoic acid tablets (USP Apparatus-II, 50 rpm, 900 mL); assay type: physicochemical; settings: QC medium (phosphate buffer, pH 6.8); in 20 minutes
Method: Dissolution characterization was performed in accordance with the dissolution method detailed in IND #106,654. The dissolution conditions were 900 mL phosphate buffer, pH 6.8, using Apparatus-II at 50 rpm.

[5] = Log partition coefficient (log p); assay type: physicochemical
[6] = pKa by potentiometric titration; assay type: physicochemical; settings: determined by potentiometric titration
[7] = cited from earlier work
[8] = QC dissolution of ezetimibe component (0.45% SLS in 0.05 M acetate buffer pH 4.5, Apparatus-II, 50 rpm, 500 mL); assay type: physicochemical; settings: QC dissolution medium, within 15 minutes
Method: Drug release profiles for both actives were estimated using common chromatographic conditions with different injection volumes.
The goal of Formulation Development Study #2 was to optimize the concentration of binder used for the granulation of ezetimibe. Wet granulation was used for the preparation of ezetimibe granules. Binder solution, povidone with SLS, and ezetimibe were used for the granulation of dry-mix powder blend. One trial with a higher concentration of povidone (3 mg/tablet) and another with a lower concentration (1 mg/tablet) were performed to observe the impact of binder concentration on dissolution. Ezetimibe granules were mixed with Bempedoic acid granules separately and compressed into a monolayer tablet for both trials.
Dissolution Profile of FDC test product (ezetimibe component) in QC media is given in Table 52, Table 53, FIG. 15, and FIG. 16.

[9] = Drug substance attributes (solubility, permeability, BCS class, hygroscopicity); assay type: physicochemical
[10] = Forced degradation of ezetimibe; assay type: physicochemical
[11] = 18.48 mg of solid in Sun cabinet 765 W/m2 at 35° C. for 24 hrs
[12] = 21.41 mg of solid + Heating at 80° C. for 24 hrs
[13] = 5.0 mL stock solution + Heating at 80° C. for 30 min
[14] = 5.0 mL stock solution in Sun cabinet 765 W/m2 at 35° C. for 15 hrs

CC(C)(CCCCCC(O)CCCCCC(C)(C)C(=O)O)C(=O)O [Bempedoic acid, 8-hydroxy-2,2,14,14-tetramethylpentadecanedioic acid]
Assay ([1]; Non stressed bempedoic acid): 99.0% | Assay ([1]; Photo, solid state): 99.2% | Assay ([1]; Thermal, solid state 105° C.): 95.8% | Assay ([1]; Thermal, solution 105 C): 97.7% | stability in the stress test study ([1]; all studied stress conditions): stable at all studied conditions | Assay ([1]; exposed to H2O2): 100.4% | Assay ([1]; exposed to HCl): 98.7% | Assay ([1]; exposed to NaOH, differs from expected ~100% due to non-quantitative neutralization prior to injection (footnote 2)): 117.3(2) % | Hausner's ratio [2]: 1.48 | compressibility index [2]: 32.6% | Assay (Bempedoic Acid) ([3]; 2W 60°): 100.2 | Assay (Bempedoic Acid) ([3]; 4W 40° C./75% RH Open): 103.7 | unspecified impurity ([3]; Initial, 2W 60°, 4W 40° C./75%): No unspecified impurity generated | Assay (Bempedoic Acid) ([3]; Initial): 101.7 | drug released [4]: more than 85% | logP ([5]; octanol/pH 3.5 buffer, pH 3.5): 4.38 | logP ([5]; octanol/water): 4.33 | pKa [6]: 4.88 | pKa ([6]; second value): 5.6 | aqueous solubility [7]: pH dependent | aqueous solubility ([7]; listed as Bempedoic acid (ETC-1002)): poorly soluble in water

O=C1[C@H](CC[C@H](O)c2ccc(F)cc2)[C@@H](c2ccc(O)cc2)N1c1ccc(F)cc1 [Ezetimibe, (3R,4S)-1-(4-fluorophenyl)-3-[(3S)-3-(4-fluorophenyl)-3-hydroxypropyl]-4-(4-hydroxyphenyl) azetidin-2-one]
Hausner's ratio [2]: 1.42 | compressibility index [2]: 29.60% | drug release (ezetimibe) [8]: more than 85% | BCS class [9]: Ezetimibe is BCS class II compounds having low | Solubility [9]: low solubility | % Degradation, Total (unspecified and specified) [10, 11]: 0.22% | Assay [10, 11]: 98.0% | % Degradation, Total (unspecified and specified) [10, 12]: 0.14% | Assay [10, 12]: 96.3% | Assay ([10]; 5.0 mL stock solution + 0.1 mL 1N NaOH at RT for 30 min): 83.1% | Assay ([10]; 5.0 mL stock solution + 1 mL 1N HCl at RT for 24 hrs): 97.9% | Assay ([10]; 5.0 mL stock solution + 1 mL H2O2 30% at RT for 24 hrs): 97.0% | % Degradation, Total (unspecified and specified) [10, 13]: 5.67% | Assay [10, 13]: 93.1% | % Degradation, Total (unspecified and specified) [10, 14]: 1.57% | Assay [10, 14]: 95.0% | % Degradation, Total (unspecified and specified) ([10]; Non stressed ezetimibe): 0.12% | Assay ([10]; Non stressed ezetimibe): 100.0% | stability classification from forced degradation ([10]; exposure to alkali (NaOH) and peroxide (H2O2)): sensitive to alkali and peroxide | stability in the solid form ([10]; heat and photo irradiation, solid form): stable to heat and photo irradiation | Assay (EZT) ([3]; 2W 60°): 97.6% | EZT 21 (Keto impurity) ([3]; 2W 60°): 0.04 | EZT cyclic ether ([3]; 2W 60°): 0.12% | SMUI ([3]; 2W 60°): 0.17% | Total impurities ([3]; 2W 60°): 0.33% | Assay (EZT) ([3]; 4W 40° C./75% RH Open): 99.5% | EZT 21 (Keto impurity) ([3]; 4W 40° C./75% RH Open): 0.38 | EZT cyclic ether ([3]; 4W 40° C./75% RH Open): 0.9% | SMUI ([3]; 4W 40° C./75% RH Open): 0.19% | Total impurities ([3]; 4W 40° C./75% RH Open): 2.34% | Assay (EZT) ([3]; Initial): 99.3% | EZT 21 (Keto impurity) ([3]; Initial): 0.03 | SMUI ([3]; Initial): 0.03% | Total impurities ([3]; Initial): 0.06% | logP ([5]; n-octanol/pH 7 aqueous phase, n-octanol: pH 7): 4.51 | logP ([5]; pH 1, n-octanol: 0.1N HCl): 4.52 | pKa [6]: 9.75 | aqueous solubility [7]: insoluble in aqueous media at all pH; also recorded: poorly soluble in water
